From patent publication US6762182B1, “Converting cox inhibition compounds that are not COX-2 selective inhibitors to derivatives that are COX-2 selective inhibitors” (Vanderbilt University, priority 1999, dated 2004)
Read-outs that look alike come from different tables or passages of the source.

Columns and labels:
COX-2 [1] = biological target: T1, COX-2 (Homo sapiens, UniProt P35354); assay: TLC assay, inhibition of purified human COX-2; format: biochemical; details: for IC50: human COX-2 (66 nM)
T1 sequence (P35354 18-604): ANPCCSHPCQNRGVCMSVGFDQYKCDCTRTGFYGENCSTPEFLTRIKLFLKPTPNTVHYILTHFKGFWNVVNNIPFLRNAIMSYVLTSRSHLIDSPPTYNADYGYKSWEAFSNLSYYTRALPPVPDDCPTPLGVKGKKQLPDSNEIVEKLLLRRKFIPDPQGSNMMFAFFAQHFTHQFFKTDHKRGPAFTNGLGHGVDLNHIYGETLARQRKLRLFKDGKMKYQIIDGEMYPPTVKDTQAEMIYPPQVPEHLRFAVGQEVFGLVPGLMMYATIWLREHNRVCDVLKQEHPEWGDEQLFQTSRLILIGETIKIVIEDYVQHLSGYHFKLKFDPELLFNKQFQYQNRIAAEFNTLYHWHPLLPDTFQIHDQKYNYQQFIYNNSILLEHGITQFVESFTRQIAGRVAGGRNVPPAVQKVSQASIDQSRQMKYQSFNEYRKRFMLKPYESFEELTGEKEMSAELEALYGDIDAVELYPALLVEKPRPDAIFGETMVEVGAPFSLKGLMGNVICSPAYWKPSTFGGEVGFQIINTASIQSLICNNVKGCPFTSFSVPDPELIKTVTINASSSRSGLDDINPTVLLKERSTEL
Description: (§1) Ovine COX-1 was used because it is very easy to isolate and to purify the enzyme from sheep seminal vesicles, whereas human COX-1 is normally obtained by over expression in an insect cell system and is very difficult to handle and especially to purify. COX-1 from sheep is >90% similar to COX-1 from humans. […] COX-1 was purified from ram seminal vesicles obtained from Oxford Biomedical Research, Inc. (Oxford, Mich.). […] The enzymes obtained after purification were apo (i.e., they lacked the hemprosthetic group).
(§2) Reactions were terminated by solvent extraction in Et2O/CH3OH/1 M citrate, pH 4.0 (30:4:1). The phases were separated by centrifugation at 2000 g-force for 2 minutes and the organic phase was spotted on a TLC plate (obtained from J. T. Baker, Phillipsburg, N.J.). The plate was developed in EtOAc/CH2Cl2/glacial AcOH (75:25:1) at 4° C. Radiolabeled prostanoid products were quantitatively determined with a radioactivity scanner (obtained from Bioscan, Inc., Washington, D.C.).

ovine COX-1 = biological target: T2, ovine COX-1 (Ovis aries, UniProt P05979); assay: TLC assay, inhibition of purified ovine COX-1
T2 sequence (P05979 25-600): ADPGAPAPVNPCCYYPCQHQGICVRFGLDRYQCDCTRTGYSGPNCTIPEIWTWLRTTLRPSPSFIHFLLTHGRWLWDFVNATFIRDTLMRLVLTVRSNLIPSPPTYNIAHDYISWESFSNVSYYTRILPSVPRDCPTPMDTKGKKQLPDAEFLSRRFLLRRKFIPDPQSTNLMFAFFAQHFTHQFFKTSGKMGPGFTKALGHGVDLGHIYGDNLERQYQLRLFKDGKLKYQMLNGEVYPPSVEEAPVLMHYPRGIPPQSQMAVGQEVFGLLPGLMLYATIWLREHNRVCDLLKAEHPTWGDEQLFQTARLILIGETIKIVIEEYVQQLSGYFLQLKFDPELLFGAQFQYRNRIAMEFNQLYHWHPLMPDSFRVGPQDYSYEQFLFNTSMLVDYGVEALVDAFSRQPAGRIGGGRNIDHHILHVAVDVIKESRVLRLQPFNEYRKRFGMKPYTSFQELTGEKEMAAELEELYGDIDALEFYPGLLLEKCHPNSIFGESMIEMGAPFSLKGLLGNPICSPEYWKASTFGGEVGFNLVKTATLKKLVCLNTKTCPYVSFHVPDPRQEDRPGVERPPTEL
Description: as §1, §2

[2] = tested on: carrageenan-induced rat foot pad edema; assay: Rat foot pad edema model (carrageenan); format: in vivo; details: for 3 hour edema: gavage 1 hour post carrageenan, 6 rats
Protocol: Rats were injected with carrageenan, which triggers a rapid edema (swelling) within 3 hours that can be quantitatively measured by volume displacement.
In these experiments, the carrageenan that was injected was in 0.1 mL of aqueous saline so that 0.1 mL volume increase was due to the injection alone. […] More specifically, male Sprague-Dawley rats (150 g) received a subplantar injection of carrageenan (0.1 mL of a 1% suspension of carrageenan in sterile aqueous saline) into the right hind footpad while mildly anesthetized with methoxyflurane. […] The ipsilateral footpad volume (mL) was measured with a water displacement plethysmometer at time=3 hours post-injection and compared to the time=0 pre-injection paw volume for edema calculations.

COX-1 = COX-1 (Homo sapiens, UniProt P23219); details: background; cited from earlier work
COX-2 [3] = biological target: T1, COX-2; details: background; cited from earlier work
[4] = read-out: IC50 (μM) COX-1, Table 1 ester derivatives, ovine COX-1 (44 nM), 20 min at rt, then 14C-AA (50 μM) 37° C. 30 sec
[5] = Table 2 amide derivatives, 20 min, then 1-14C-AA (50 μM) 37° C. 30 sec
[6] = read-out: IC50 (μM) COX-1, Table 2 amide derivatives, ovine COX-1 (44 nM), 20 min, then 1-14C-AA (50 μM) 37° C. 30 sec

Chain of COX-1 (P23219 24-599): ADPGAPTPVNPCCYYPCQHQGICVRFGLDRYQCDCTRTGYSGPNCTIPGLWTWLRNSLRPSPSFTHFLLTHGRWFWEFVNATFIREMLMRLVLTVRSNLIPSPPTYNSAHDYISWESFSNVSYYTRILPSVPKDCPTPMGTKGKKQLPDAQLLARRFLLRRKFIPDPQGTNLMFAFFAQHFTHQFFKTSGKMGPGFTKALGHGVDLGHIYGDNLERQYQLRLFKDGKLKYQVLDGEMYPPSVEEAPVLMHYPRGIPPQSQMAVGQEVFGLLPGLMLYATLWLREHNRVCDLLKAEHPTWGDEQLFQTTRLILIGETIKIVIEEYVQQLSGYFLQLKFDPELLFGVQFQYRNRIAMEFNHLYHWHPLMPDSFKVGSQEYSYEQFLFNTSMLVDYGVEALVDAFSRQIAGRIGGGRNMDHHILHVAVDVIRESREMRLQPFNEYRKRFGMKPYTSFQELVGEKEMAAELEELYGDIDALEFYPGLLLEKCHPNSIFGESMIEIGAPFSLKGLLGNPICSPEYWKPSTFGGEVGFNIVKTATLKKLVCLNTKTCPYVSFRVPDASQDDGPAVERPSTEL

## Cc1nc(-c2ccccc2)c(-c2ccc(S(N)(=O)=O)cc2)o1 [2-methyl-4-phenyl-5-sulfonamidophenyl oxazolo, reference compound]
COX-2 [1]; Table 1 ester derivatives, 20 min at rt, then 14C-AA (50 μM) 37° C. 30 sec
  IC50: 0.06 µM
Ovine COX-1
  IC50: > 66 µM
Ovine COX-1; [4]
  IC50: > 66 µM

## COC(=O)Cc1c(C)n(C(=O)c2ccc(Cl)cc2)c2ccc(OC)cc12 [Compound 2, Indomethacin methyl ester]
Ovine COX-1
  IC50: ~33 µM
Ovine COX-1; [4]
  IC50: 33 µM

## COc1ccc2c(c1)c(CC(=O)OC(C)C)c(C)n2C(=O)c1ccc(Cl)cc1 [Compound 5, Indomethacin isopropyl ester]
Ovine COX-1
  IC50: 37 µM

## CCCCCCCOC(=O)Cc1c(C)n(C(=O)c2ccc(Cl)cc2)c2ccc(OC)cc12 [Compound 11, Indomethacin heptyl ester]
Ovine COX-1
  IC50: > 66 µM

## CCCCC#CCOC(=O)Cc1c(C)n(C(=O)c2ccc(Cl)cc2)c2ccc(OC)cc12 [Compound 14, Indomethacin hept-2-ynyl ester]
Ovine COX-1
  IC50: > 66 µM

## CCC#CCC(C)OC(=O)Cc1c(C)n(C(=O)c2ccc(Cl)cc2)c2ccc(OC)cc12 (stereo not drawn) [Compound 15, Indomethacin 2-(hept-4-ynyl) ester]
Ovine COX-1
  IC50: > 66 µM

## CCCCCCCCOC(=O)Cc1c(C)n(C(=O)c2ccc(Cl)cc2)c2ccc(OC)cc12 [Compound 16, Indomethacin octyl ester]
Ovine COX-1
  IC50: > 66 µM

## COc1ccc2c(c1)c(CC(=O)Oc1ccc3ccccc3c1)c(C)n2C(=O)c1ccc(Cl)cc1 [Compound 25, Indomethacin β-naphthyl ester]
Ovine COX-1
  IC50: > 66 µM

## COc1ccc2c(c1)c(CC(=O)Nc1ccc(NC(C)=O)cc1)c(C)n2C(=O)c1ccc(Cl)cc1 [Compound 41, Indomethacin-N-(4-acetamidophenyl) amide]
[2]; Concentration 0.2 mg/mL
  3 hour edema: 0.55 mL
[2]; Concentration 0.5 mg/mL
  3 hour edema: 0.47 mL
[2]; Concentration 1.0 mg/mL
  3 hour edema: 0.39 mL
[2]; Concentration 2.0 mg/mL
  3 hour edema: 0.38 mL
[2]; rat, 2 mg/kg orally 1 hour after carrageenan, corrected for 0.1 mL injection volume
  reduction in inflammation: 80-85%

## COc1ccc2c(c1)c(CC(=O)Nc1cc(OC)c(OC)c(OC)c1)c(C)n2C(=O)c1ccc(Cl)cc1 [Compound 46, Indomethacin-N-(3,4,5-trimethoxyphenyl) amide]
COX-2 [1]; Table 2 amide derivatives
  Selectivity, ratio of IC50 (COX-1):IC50 (COX-2): >66
COX-2 [1]; [5]
  IC50: > 1 µM
Ovine COX-1; [6]
  IC50: > 66 µM

## COc1ccc2c(c1)c(CC(=O)Nc1ccc(Cl)nc1)c(C)n2C(=O)c1ccc(Cl)cc1 [Compound 48, Indomethacin-N-5-((2-chloro)pyridyl) amide]
COX-2 [1]; Table 2 amide derivatives
  Selectivity, ratio of IC50 (COX-1):IC50 (COX-2): >1404
COX-2 [1]; [5]
  IC50: 0.047 µM
Ovine COX-1; [6]
  IC50: > 66 µM

## COC(=O)[C@H](C)NC(=O)Cc1c(C)n(C(=O)c2ccc(Cl)cc2)c2ccc(OC)cc12 [Compound 52, Indomethacin-N-2-(2-L-methoxycarbonylethyl) amide]
COX-2 [1]; [5]
  IC50: 0.4 µM

## COc1ccc2c(c1)c(CC(=O)Nc1nc(C)cs1)c(C)n2C(=O)c1ccc(Cl)cc1 [Compound 57, Indomethacin-N-2-(4-methylthiazolyl) amide]
Ovine COX-1; [6]
  IC50: > 66 µM

## COc1ccc2c(c1)c(CC(=O)O)c(C)n2C(=O)c1ccc(Cl)cc1 [Indomethacin, reference compound]
[2]; rat, 2 mg/kg orally
  reduction in inflammation, in words: comparable reduction in inflammation

## CC1=C(CC(=O)O)c2cc(F)ccc2/C1=C\c1ccc(S(C)(=O)=O)cc1 [sulindac sulfone]
COX-1
  COX-1 inhibition, in words: does not inhibit
COX-2 [3]
  COX-2 inhibition, in words: does not inhibit
